For one assay, the target named is T1, beta-secretase (BACE-1) (Homo sapiens, UniProt P56817).
T1 construct: gene BACE1
The assay can be described thus: fluorescent BACE-1 activity detection kit (Sigma-Aldrich). Format: biochemical.

Assay [1] has as its target Acetylcholinesterase (AChE) (Electrophorus electricus, UniProt O42275). Kind of assay: Ellman's assay with electric eel AChE. In kind it is biochemical.

In general, IC50 refers to the concentration at which inhibition is half-maximal. Lower therefore signals greater potency in that assay.

Sequence of Acetylcholinesterase (AChE) (O42275 24-633): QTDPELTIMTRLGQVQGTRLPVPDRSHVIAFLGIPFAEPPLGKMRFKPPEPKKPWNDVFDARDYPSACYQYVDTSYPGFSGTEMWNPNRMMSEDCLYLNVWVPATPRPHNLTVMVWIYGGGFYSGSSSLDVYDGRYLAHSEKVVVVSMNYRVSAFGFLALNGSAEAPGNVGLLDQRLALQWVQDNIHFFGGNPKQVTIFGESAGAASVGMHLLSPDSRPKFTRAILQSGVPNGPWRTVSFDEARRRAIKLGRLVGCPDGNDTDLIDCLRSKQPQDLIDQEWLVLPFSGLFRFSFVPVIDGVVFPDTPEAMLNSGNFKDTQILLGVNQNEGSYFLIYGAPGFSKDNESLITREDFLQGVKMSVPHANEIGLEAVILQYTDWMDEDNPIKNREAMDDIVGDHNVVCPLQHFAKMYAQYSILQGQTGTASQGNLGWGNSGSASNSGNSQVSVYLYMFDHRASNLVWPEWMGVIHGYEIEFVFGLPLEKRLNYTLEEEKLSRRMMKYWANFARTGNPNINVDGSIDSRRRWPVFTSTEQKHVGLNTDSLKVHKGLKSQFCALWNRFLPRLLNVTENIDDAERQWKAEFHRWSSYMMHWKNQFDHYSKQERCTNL
T1 sequence (P56817 46-457): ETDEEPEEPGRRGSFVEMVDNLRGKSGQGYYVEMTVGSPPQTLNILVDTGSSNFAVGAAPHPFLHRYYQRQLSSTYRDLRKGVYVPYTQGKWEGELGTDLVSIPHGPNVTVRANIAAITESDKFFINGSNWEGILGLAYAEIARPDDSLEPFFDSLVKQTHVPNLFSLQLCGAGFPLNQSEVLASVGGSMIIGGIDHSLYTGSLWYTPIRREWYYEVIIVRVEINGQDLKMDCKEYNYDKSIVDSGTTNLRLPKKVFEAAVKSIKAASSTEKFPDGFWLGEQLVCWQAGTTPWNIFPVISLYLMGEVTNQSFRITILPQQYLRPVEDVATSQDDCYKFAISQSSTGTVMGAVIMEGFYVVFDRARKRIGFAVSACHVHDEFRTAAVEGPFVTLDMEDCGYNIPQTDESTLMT

Turning to `CCOc1cc(C(=O)O)c(C(=O)CCc2ccccc2)c(N(C)C)c1` [F9, 3-(dimethylamino)-5-ethoxy-2-(3-phenylpropanoyl)benzoic acid], the values for the 50% inhibitory concentration (IC50) (at beta-secretase (BACE-1); in assay [1]) were 1.85 ± 0.33 µM and 30 ± 1.24 µM, respectively.

Take `CN(C)c1cccc(CCC(=O)c2cc(O)ccc2N(C)C)c1` [F24, 1-(2-(dimethylamino)-5-hydroxyphenyl)-3-(3-(dimethylamino)phenyl)propan-1-one]: the 50% inhibitory concentration (IC50) against beta-secretase (BACE-1) worked out at 3.52 ± 0.77 µM; in assay [1], 80.5 ± 3.07 µM.
